We go through two compounds from patent US20250312339A1, “METHODS AND COMPOSITIONS COMPRISING A SHP2 INHIBITOR AND A PD-LI BINDING ANTAGONIST” (Genentech, Inc., priority 2022, published 2025).

“Also recorded” adds a separate entry of the source.

The subject of data set [1] is EGFR-amplified esophageal squamous cell carcinoma (KYSE-520). The experiment in a line: Human tumor xenograft model, EGFR-amplified esophageal squamous cell carcinoma. The data set is classed as in vivo. To be noted: oral administration, single agent. The source says: (§1) Compound 1 has also been tested for in vivo anti-tumor activity in multiple xenograft models.
On the technique in general: A xenograft is tissue or cells of one species grown in another, often human tumour cells in immunodeficient mice.

The nature of data set [2]: Nonclinical safety studies. It counts as in vivo. From the text: Risks associated with MAPK-Pathway Class Inhibitors. Administration of MAPK-pathway inhibitors has been associated with cardiomyopathy, retinopathy, Cardiomyopathy, CPK increase, thromboembolic events, Phototoxicity, and Reproductive Toxicity.
In a further data set the test system is EMT6 mammary carcinoma. Put plainly: Anti-tumor efficacy, EMT6 mammary carcinoma in BALB/c mice. The data set is classed as in vivo. The procedure: Agents. Compound 1 was formulated in 50 mM Sodium Citrate buffer, pH3.0 at a concentration of […]. Anti-PD-L1 mAbs (Mu IgG2a anti-PD-L1, hereafter referred to as anti-PD-L1) and anti-gp120 isotype control (Mu IgG1 anti-gp120; hereafter referred to as Isotype Control) were formulated as a solution in buffer of 20 mM Histidine Acetate, 240 mM Sucrose, 0.02% Tween 20™, pH 5.5. An oral-dosed vehicle control was 50 mM Sodium Citrate buffer, pH3.0.
Cell Lines. The EMT6 mammary carcinoma cell line was cultured in vitro, harvested in log-phase growth, and resuspended in Hank's Balanced Salt Solution (HBSS) containing Matrigel™ (BD Biosciences; San Jose, CA) at a 1:1 ratio by volume for in vivo inoculation. Animals were each inoculated with 0.1×10^6 cells in the mammary gland (5, left) in a volume of […].
Mice tumor models. 10.6 weeks old Balb/c mice bearing tumors in the range of 141-196 mm^3 were evenly distributed into 4 study groups of 10 mice each. The mean tumor volume across all groups was 165 mm^3 at the start of dosing. The mean starting weight was 19.94 g. All concentrations were calculated based on a mean body weight of 20 g and adjusted for 10% body weight loss or gain. Mice in the various groups received the treatment regimens described in Table 1. Mice were dosed for a total of 28 days or until euthanized at first sign of morbidity or if body weight loss was >20% of their weight at the start of administration.
The study extended beyond 28 days and following the cessation of treatment to check for the durability of response and ended at day 102 wherein remaining mice were all euthanized.
Tumor and Body Weight Measurements. Tumor volumes were measured in two perpendicular dimensions (length and width) using Ultra Cal-IV calipers (model 54-10-111; Fred V. Fowler Co.; Newton, MA) and tumor volume was calculated according to the following formula: […]
Tumors that regressed by >50% relative to their starting volume during the study were categorized as partial responders (PRs) while tumors with a final tumor volume corresponding to full regression were categorized as complete responders (CRs). Animal body weights were measured using an Adventura Pro AV812 scale (Ohaus Corporation; Pine Brook, NJ) and percent change in body weight for each group was calculated and plotted (see FIG. 4). Percent weight change was calculated using the following formula: […]
Growth analysis and group comparisons. […] Analyses and comparisons of tumor growth were performed using a package of customized functions in R (Version 3.6.2); R Foundation for Statistical Computing; Vienna, Austria, which integrates software from open source packages (e.g., lme4, mgcv, gamm4, multcomp, settings, and plyr) and several packages from tidyverse (e.g., magrittr, dplyr, tidyr, and ggplot2) (Forrest et al.; Cancer Res 2020; 80(22):5089-97). All raw tumor volume measurements from 0 (minimum) to 8 mm^3 (maximum value) were judged to reflect complete tumor absence and were converted to 8 mm^3 prior to natural log transformation. A generalized additive mixed model (GAMM) was then applied to describe the changes in transformed tumor volumes over time using regression splines with automatically generated spline bases. This approach addresses both repeated measurements from the same study subjects and moderate dropouts before the end of the study. […]

Data set [3] is described as follows: Events associated with administration of Compound 1. To be noted: reversible and monitorable events. It counts as in vivo. The source says:
Risks Associated with Compound 1.

A short description of data set [4]: Anti-proliferative effect in cancer cell lines, 2D and anchorage-independent 3D formats. It counts as cell-based. The conditions noted are these: numerous cell lines, 2D or 3D assays; read-out: IC50, proliferation. From the text:
The anti-proliferative effect of Compound 1 has been assessed in multiple cancer cell lines using 2D and anchorage-independent 3D formats.

Data set [5] deals with panel of kinases, receptors, ion channels, and transporters. The experiment in a line: Selectivity panel. As to the method:
(§2) Compound 1 is a potent allosteric inhibitor of recombinant human SHP2, with inhibitory concentration of 50% (IC50) of 0.7 nM. It has been characterized in numerous nonclinical cancer models.

For another data set, the system named is EMT6 mammary tumors. The experiment in a line: Tumor immuno-profiling by flow cytometry after 7 days of treatment. It counts as in vivo, mice. As to the method: Tumor Immuno-profiling. Anti-tumor immunity was evaluated in EMT6 mammary tumors by flow cytometric immuno-profiling of tumor cells and tumor-infiltrating immune cells the tumor after 7-days of treatment with either vehicle and isotype control antibodies, single agent Compound 1 (60 mg/kg, PO, QD), anti-PD-L1 antibodies (10 mg/kg, IV, first dose, then 5 mg/kg, IP, twice per week), or the combination with of Compound 1 and anti-PD-L1.
The activation status of the TILs was assessed by assessing the expression of cytokines and effector molecules, including interferon gamma (IFNg), tumor necrosis factor alpha (TNFa) and granzyme B (GZMB) from tumor-derived T cells under restimulation conditions using PMA/ionomycin (FIG. 6A). […] There was also an increase of the frequency of CD8+ T cells expressing GZMB in tumors from mice treated with Compound 1 and anti-PD-L1 relative to the vehicle group (p=0.0137). (FIG. 6A). The polyfunctionality of tumor-infiltrating CD8^+ T cells (expressing IFNg and TNFa) was increased when mice were treated with Compound 1 alone or in combination with anti-PD-L1 antibodies relative to the vehicle group (p=0.0008 and p=0.0011, respectively). Markers of T cell activation and exhaustion were also assessed to determine if SHP2 inhibition by Compound 1 alone or in combination with anti-PD-L1 antibodies altered the phenotype of CD8+ T cells in the tumor.
On the technique in general: Flow cytometry measures light scatter and fluorescence of single cells or particles in a stream.

For data set [6], the system named is SHP2 (ERKT/2 phosphorylation at Thr202/Tyr204) in EGFR-amplified KYSE-520 cells. Put plainly: SHP2 inhibition in cells by level of ERK phosphorylation. The data set is classed as cell-based. To be noted: Homo sapiens. As to the method:
as §2

The test system of data set [7] is KRAS-mutant NSCLC (NCI-H358). Put plainly: Human tumor xenograft model, KRAS-mutant NSCLC. To be noted: oral administration, single agent. It counts as in vivo.
From the text: as §1

The target in a further data set is T1, recombinant human SHP2 (Homo sapiens, UniProt Q06124).
T1 sequence (Q06124 1-593): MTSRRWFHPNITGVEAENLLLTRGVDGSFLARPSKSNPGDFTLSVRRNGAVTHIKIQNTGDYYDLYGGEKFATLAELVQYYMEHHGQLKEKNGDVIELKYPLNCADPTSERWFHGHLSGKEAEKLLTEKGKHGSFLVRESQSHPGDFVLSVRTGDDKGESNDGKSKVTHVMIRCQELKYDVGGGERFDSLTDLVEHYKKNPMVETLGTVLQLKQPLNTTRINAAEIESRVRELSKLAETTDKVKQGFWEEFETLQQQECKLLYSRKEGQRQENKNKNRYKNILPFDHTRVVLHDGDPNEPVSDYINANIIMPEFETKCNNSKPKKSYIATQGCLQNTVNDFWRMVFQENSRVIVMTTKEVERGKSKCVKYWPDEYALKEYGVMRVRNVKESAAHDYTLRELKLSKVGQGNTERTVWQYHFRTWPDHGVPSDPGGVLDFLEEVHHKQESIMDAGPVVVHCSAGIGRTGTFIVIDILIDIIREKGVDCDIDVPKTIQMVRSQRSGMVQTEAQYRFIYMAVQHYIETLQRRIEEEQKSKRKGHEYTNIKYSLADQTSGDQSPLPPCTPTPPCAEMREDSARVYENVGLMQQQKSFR
Put plainly: Inhibition of recombinant human SHP2. The conditions noted are these: allosteric inhibitor. It counts as biochemical. As to the method:
as §2

For data set [8] the following is noted: in vivo; cited from earlier work.
In the next data set the test system is Fc receptors. The conditions noted are these: cited from earlier work.

As for `N[C@@H]1c2ccccc2OC12CCN(c1cnc3c(N4CCCc5ncccc54)n[nH]c3n1)CC2` [Compound 1, (R)-1′-(3-(3,4-dihydro-1,5-naphthyridin-1(2H)-yl)-1H-pyrazolo[3,4-b]pyrazin-6-yl)-3H-spiro[benzofuran-2,4′-piperidin]-3-amine], the “Anti-tumor efficacy, KYSE-520 xenograft” value in data set [1] is “significant anti-tumor efficacy”. In addition, in data set [2], the Nonclinical toxicity findings entry is “did not show evidence of cardiac, pulmonary, renal, thromboembolic, or ophthalmic toxicities”. Besides, in the data set on EMT6 mammary carcinoma (AUC-based, relative to vehicle controls, Compound 1 60 mg/kg PO QD, anti-PD-L1 10 mg/kg IV then 5 mg/kg IP twice weekly), the “Legacy % TGI” value amounted to 47%. Moreover, in the data set on EMT6 mammary carcinoma (EMT6 syngeneic tumor model, Compound 1 60 mg/kg QD), the “Anti-tumor efficacy (in words)” value was “no efficacy”. Besides, the “EOS CR (complete responders at end of study)” value in the data set with EMT6 mammary carcinoma (end of study day 102, after cessation of 28-day dosing, 10 mice per group) was 0 (0.0%). In the data set on EMT6 mammary carcinoma (relative to vehicle controls, Compound 1 60 mg/kg PO QD, anti-PD-L1 10 mg/kg IV first dose then 5 mg/kg IP twice weekly), the “Growth Contrast, LN (GR)” value is listed as −0.033 LN. Also, the “PR (partial responders)” value in the data set on EMT6 mammary carcinoma (tumors regressed by >50% relative to starting volume, 10 mice per group) was 0 (0.0%). The “Events associated with administration” value in data set [3] is “Peripheral Edema, Myelosuppression (e.g., Thrombocytopenia, Anemia), Gastrointestinal Toxicities (e.g., Diarrhea, Nausea, and Vomiting), Elevation of Hepatic Transaminase, and Rash”. Moreover, the IC50 in [4] is under 1 nM; in data set [6], 1.3 nM; at recombinant human SHP2, 0.7 nM. For the same compound, the Selectivity against panel result in data set [5] is “selectively inhibits SHP2”. Besides, the “IFNg expression on tumor-derived CD8+ T cells” value in the data set with EMT6 mammary tumors (PMA/ionomycin restimulation, vs vehicle, p=0.0002 (Compound 1), p=0.0001 (combination)) is “increase”. Moreover, the “TNFa expression on tumor-derived CD8+ T cells” value in the data set with EMT6 mammary tumors (PMA/ionomycin restimulation, vs vehicle, p=0.0016 (Compound 1), p=0.0035 (combination)) is reported as “increase”. For the same compound, the “MFI of PD-L1 expression on tumor cells (CD45 negative)” value with EMT6 mammary tumors (vs vehicle group, 7 days, p=0.0127 (Compound 1), p=0.0018 (combination)) is “significant increase”. The “MFI of MHC-I expression on tumor cells (CD45 negative)” value in the data set on EMT6 mammary tumors (vs vehicle group, 7 days, p=0.0354 (Compound 1), p=0.0044 (combination)) is “significant increase”. Also, the “Polyfunctionality of tumor-infiltrating CD8+ T cells (co-expression of IFNg and TNFa)” value in the data set on EMT6 mammary tumors (vs vehicle group, p=0.0008 (Compound 1), p=0.0011 (combination)) was “increase”. Moreover, in the data set on EMT6 mammary tumors (vs vehicle group, p=0.0033 (Compound 1), p=0.0162 (combination)), the “Frequency of M1 population of macrophages” value is “increase”. For the same compound, the “M2 population of macrophages” value in the data set on EMT6 mammary tumors (vs vehicle group, p=0.0036 (Compound 1), p=0.0007 (combination)) was “decrease”. The “Frequency of CD8 T cell population in tumor microenvironment” value in the data set with EMT6 mammary tumors (vs vehicle group, p=0.0058 (Compound 1), p=0.008 (combination)) is “increase”. For the same compound, the “Frequency of MDSCs in tumor” value with EMT6 mammary tumors (vs vehicle group, p=0.0058 (Compound 1), p=0.0083 (combination)) is recorded as “reduction; also recorded: reduced”. For the same compound, in the data set with EMT6 mammary tumors (vs vehicle group, p=0.0067 (Compound 1), p=0.002 (combination)), the “Frequency of CD4 T cell population in tumor microenvironment” value was “increase”. Further, the “Frequency of TAMs in tumor” value with EMT6 mammary tumors (vs vehicle group, p=0.0072 (Compound 1), p=0.0098 (combination)) is “reduction; also recorded: reduced”. Moreover, in the data set with EMT6 mammary tumors (vs vehicle group, p=0.013 (Compound 1), p=0.024 (combination)), the “Frequency of NK cells in tumor microenvironment” value is listed as “increase”. The “Anti-tumor efficacy, NCI-H358 xenograft” value in data set [7] is on record as “significant anti-tumor efficacy”.
“Atezolizumab: Fc-engineered, humanized, non-glycosylated IgG1 kappa immunoglobulin that binds PD-L1 (SEQ ID NO: 1 and 2)”: the Tolerability entry in data set [8] is recorded as “generally well tolerated”. Also, the “Binding to Fc receptors” value in the data set on Fc receptors is “minimal binding to Fc receptors”.
